Test results: patent US4613587A, “Ophthalmic preparations” (Yeda Research and Development Co. Ltd., priority 1983, dated 1986)
Where “and” joins values, the source holds several entries; their conditions need not be identical. Equal values may be shown once. Read-outs that look alike come from different tables or passages of the source.

How the values were obtained:
[1] = molecular target: elastase of P. aeruginosa (Pseudomonas aeruginosa, UniProt P14756); conditions: background; known inhibitors effective at rather large concentrations; cited from earlier work
Chain of elastase of P. aeruginosa (P14756 198-498): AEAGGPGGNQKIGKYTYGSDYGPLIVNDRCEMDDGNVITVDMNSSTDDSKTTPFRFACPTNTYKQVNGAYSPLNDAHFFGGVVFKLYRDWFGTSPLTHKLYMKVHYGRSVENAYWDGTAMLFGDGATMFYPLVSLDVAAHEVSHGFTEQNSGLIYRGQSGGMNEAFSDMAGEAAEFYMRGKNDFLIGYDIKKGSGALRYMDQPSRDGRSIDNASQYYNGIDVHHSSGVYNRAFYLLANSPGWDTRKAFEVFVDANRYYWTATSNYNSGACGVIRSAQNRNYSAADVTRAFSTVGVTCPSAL

Pseudomonas elastase = Pseudomonas elastase (Pseudomonas aeruginosa, UniProt P14756); test: biochemical
Chain of Pseudomonas elastase (P14756 198-498): as above
Procedure: Measurements were performed at 25° C. The reaction solutions (2.5 ml) ocnsisted of 0.1-0.2 mM substrate in 0.1M NaCl-0.05M Tris. HCl-0.01M CaCl2, pH 7.5; all were demetallized. The hydrolysis of substrate was first order and rates were determined from plots of (At -A) versus t (At and A represent absorbance at time t and after completion of the reaction, respectively). Inhibition constants (Ki) were derived from plots of ko /ki versus inhibitor concentration (ko and ki are the observed rate constants in absence and presence of inhibitors, respectively).
The inhibition characteristics of […] for Pseudomonas elastase, using furylacryloyl-Gly-Leu-Ala as the substrate, was determined. […] The Ki value for HS-Ac-Phe-Leu was 0.2 μM.

[2] = molecular target: T1, Pseudomonas aeruginosa elastase (Pseudomonas aeruginosa, UniProt P14756); test: Protection of the cornea: topical inhibitor drops before and after elastase injection into rabbit cornea; assay type: in vivo; conditions: 10 mM solution
T1 sequence (P14756 198-498): as above
Text: 2. […] This series of experiments proves that the mercaptoacetyl dipeptide is an effective agent preventing damage to the eye caused by Pseudomonas aeruginosa elastase.

[3] = molecular target: T1, Pseudomonas aeruginosa elastase; test: Protection of the cornea: pure elastase injected into rabbit cornea together with inhibitor; assay type: in vivo; conditions: rabbit eye, about 1 μg elastase injected with 0.2 μmole (70 μg) inhibitor
Procedure: 1. When about 1 μg of the pure elastase is injected into the cornea of a rabbit eye, the cornea "dissolves", swells and perforates within about an hour and a half from the time of the injection of the elastase. When the same amount of enzyme is injected in the presence of 0.2μ mole (70 μg) of the inhibitor mercaptoacetyl-L-phenylalanyl-L leucine, the dissolution effect is postponed to about 9 hours from the injection of the enzyme. […] The perforation of the cornea is prevented.

Pseudomonas aeruginosa [4] = test: Experimental model of Pseudomonas keratitis in rabbit eyes, antibiotic plus inhibitor versus antibiotic alone; assay type: in vivo; conditions: 10 mM inhibitor drops combined with 0.3% gentamicin sulfate
Procedure: 3. The efficacy of combined treatment with antibiotics and the inhibitor HSAc-Phe-Leu was compared with that of the antibiotics alone using an experimental model of Pseudomonas keratitis in rabbit eyes. The inhibitor at a concentration of 10 mM was given, one drop at a time, every 15 min. for 1 hour after infection with the bacteria, and then hourly for additional 44 hours. The antibiotic (0.3% gentamicin sulfate) was applied every 2 hours, starting 16 hours after infection.

Pseudomonas aeruginosa [5] = test: Rabbit eyes infected with P. aeruginosa, topical treatment (Expt. A and B), clinical scores and corneal melting; assay type: in vivo; conditions: for Development of extensive corneal melting (%) / Development of extensive corneal melting, No. of eyes with melting/No. of eyes in group: extensive: 30% of corneal area affected; for Development of corneal melting (%) / Development of corneal melting, No. of eyes with melting/No. of eyes in group: rabbit eyes; for Clinical Scores: individual rabbit eyes, scoring of Table 3, maximum 10
Procedure: Further experiments were carried out. The schedule of topical treatment is set out in Table 2. The criteria applied to the results are set out in Table 3. […]

## O=C(O)CN(CCN(CC(=O)O)CC(=O)O)CC(=O)O [EDTA]
[1]
  inhibition of the elastase: inhibited

## CC(C)C[C@H](NC(=O)CS)C(=O)N[C@H](Cc1ccccc1)C(=O)O [HS-Ac-Leu-D-Phe]
Pseudomonas elastase; 25° C., pH 7.5, substrate furylacryloyl-Gly-Leu-Ala, read-out: Ki
  Ki: 34000 nM

## CC(C)C[C@H](NC(=O)CS)C(=O)N[C@@H](Cc1ccccc1)C(=O)O [HS-Ac-Leu-Phe, 2-mercaptoacetyl-L-leucyl-L-phenylalanine]
Pseudomonas elastase
  Ki: 1500 nM

## CC(C)C[C@H](NC(=O)[C@H](Cc1ccccc1)NC(=O)CS)C(=O)O [HS-Ac-Phe-Leu, mercaptoacetyl-L-phenylalanyl-L-leucine]
[2]; topical drops before and after enzyme injection
  dissolution of the cornea: no "dissolution" of the cornea takes place at all
[2]; topical drops, remains for many hours after cessation of treatment
  appearance of the eye: entirely normal
Pseudomonas elastase
  Ki: 200 nM
[3]
  perforation of the cornea: prevented
[3]; after about 9 hours
  damage caused, part of the cornea affected: ≤ 10%
[3]; without inhibitor about an hour and a half
  time from injection of the enzyme to which the dissolution effect of the cornea is postponed: about 9 hours
Pseudomonas aeruginosa [4]
  severity of the damage caused to the eyes, versus antibiotic alone: significantly lower

## c1cnc2c(c1)ccc1cccnc12 [O-phenanthroline]
[1]
  inhibition of the elastase: inhibited

## gentamicin sulfate
Pseudomonas aeruginosa [5]; 28 h after infection
  Development of extensive corneal melting (%): 27%
  Development of extensive corneal melting, No. of eyes with melting/No. of eyes in group: 4/15
  Development of corneal melting (%): 73%
  Development of corneal melting, No. of eyes with melting/No. of eyes in group: 11/15
Pseudomonas aeruginosa [5]; 28 hours after infection, Expt. A
  Clinical Scores: 7 and 4 and 3 and 6 and 1
Pseudomonas aeruginosa [5]; 28 hours after infection, Expt. B
  Clinical Scores: 3 and 2 and 1 and 6
Pseudomonas aeruginosa [5]; 48 h after infection
  Development of extensive corneal melting (%): 60%
  Development of extensive corneal melting, No. of eyes with melting/No. of eyes in group: 9/15
  Development of corneal melting (%): 93%
  Development of corneal melting, No. of eyes with melting/No. of eyes in group: 14/15
Pseudomonas aeruginosa [5]; 48 hours after infection, Expt. A
  Clinical Scores: 7 and 10 and 6 and 4 and 3
Pseudomonas aeruginosa [5]; 48 hours after infection, Expt. B
  Clinical Scores: 6 and 7 and 5 and 4
